Laboratory results published in patent publication US20260131009A1, “BIFUNCTIONAL PI3K-ALPHA INHIBITORS AND USES THEREOF” (Relay Therapeutics, Inc., priority 2021, published 2026).

How the values were obtained:
PI3Kα = PI3Kα (Homo sapiens, UniProt P42336, H1047R); experiment: ADP-Glo IC50 assay; format: biochemical; settings: class symbols; key not given
MCF10A = MCF10A IC50 assay; format: cell-based; settings: Homo sapiens, MCF-10A; class symbols; key not given
Method in brief: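 MCF10A cells overexpressing hotspot PIK3CA mutations were seeded at 5,000 per well in supplemented DMEM/F12 and adhered overnight (37 °C, 5% CO₂). Compounds were added acoustically as 12-dose 1:3 series, in duplicate, for 2 hours. Cells were lysed 60 min, then incubated 4 hours at room temperature with CisBio phospho-AKT (Ser473) HTRF antibodies and read on an Envision 2105. IC₅₀ for AKT phosphorylation came from Genedata software and was reported as binned categories.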

Chain of PI3Kα (P42336 whole entry H1047R): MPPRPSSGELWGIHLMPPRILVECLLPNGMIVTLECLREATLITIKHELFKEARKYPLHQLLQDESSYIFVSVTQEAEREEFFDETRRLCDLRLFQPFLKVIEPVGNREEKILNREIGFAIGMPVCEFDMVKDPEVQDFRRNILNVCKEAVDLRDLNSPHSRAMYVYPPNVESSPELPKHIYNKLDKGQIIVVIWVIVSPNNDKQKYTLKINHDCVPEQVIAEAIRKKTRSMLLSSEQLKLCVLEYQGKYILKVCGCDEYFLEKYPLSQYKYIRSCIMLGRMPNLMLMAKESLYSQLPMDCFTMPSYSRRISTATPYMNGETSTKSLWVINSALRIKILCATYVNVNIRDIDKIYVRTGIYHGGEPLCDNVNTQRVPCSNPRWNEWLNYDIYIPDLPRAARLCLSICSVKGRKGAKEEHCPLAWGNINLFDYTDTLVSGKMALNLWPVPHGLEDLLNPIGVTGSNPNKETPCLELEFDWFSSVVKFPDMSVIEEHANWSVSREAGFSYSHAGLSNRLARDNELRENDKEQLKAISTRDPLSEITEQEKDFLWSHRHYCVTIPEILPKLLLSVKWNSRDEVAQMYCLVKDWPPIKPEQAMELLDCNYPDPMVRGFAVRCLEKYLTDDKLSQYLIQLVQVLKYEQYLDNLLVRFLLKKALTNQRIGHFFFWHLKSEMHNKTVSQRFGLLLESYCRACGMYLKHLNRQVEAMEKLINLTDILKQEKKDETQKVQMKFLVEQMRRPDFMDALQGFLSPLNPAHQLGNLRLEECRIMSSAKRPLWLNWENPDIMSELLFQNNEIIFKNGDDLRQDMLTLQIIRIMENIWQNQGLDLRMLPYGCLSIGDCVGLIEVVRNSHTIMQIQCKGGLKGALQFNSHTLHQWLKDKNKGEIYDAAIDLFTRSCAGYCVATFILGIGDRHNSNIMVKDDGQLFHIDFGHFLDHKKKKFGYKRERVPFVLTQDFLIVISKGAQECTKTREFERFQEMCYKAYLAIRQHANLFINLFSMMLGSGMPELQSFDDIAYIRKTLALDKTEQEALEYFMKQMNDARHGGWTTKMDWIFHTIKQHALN
Chain of PI3Kα (P27986 whole entry partner): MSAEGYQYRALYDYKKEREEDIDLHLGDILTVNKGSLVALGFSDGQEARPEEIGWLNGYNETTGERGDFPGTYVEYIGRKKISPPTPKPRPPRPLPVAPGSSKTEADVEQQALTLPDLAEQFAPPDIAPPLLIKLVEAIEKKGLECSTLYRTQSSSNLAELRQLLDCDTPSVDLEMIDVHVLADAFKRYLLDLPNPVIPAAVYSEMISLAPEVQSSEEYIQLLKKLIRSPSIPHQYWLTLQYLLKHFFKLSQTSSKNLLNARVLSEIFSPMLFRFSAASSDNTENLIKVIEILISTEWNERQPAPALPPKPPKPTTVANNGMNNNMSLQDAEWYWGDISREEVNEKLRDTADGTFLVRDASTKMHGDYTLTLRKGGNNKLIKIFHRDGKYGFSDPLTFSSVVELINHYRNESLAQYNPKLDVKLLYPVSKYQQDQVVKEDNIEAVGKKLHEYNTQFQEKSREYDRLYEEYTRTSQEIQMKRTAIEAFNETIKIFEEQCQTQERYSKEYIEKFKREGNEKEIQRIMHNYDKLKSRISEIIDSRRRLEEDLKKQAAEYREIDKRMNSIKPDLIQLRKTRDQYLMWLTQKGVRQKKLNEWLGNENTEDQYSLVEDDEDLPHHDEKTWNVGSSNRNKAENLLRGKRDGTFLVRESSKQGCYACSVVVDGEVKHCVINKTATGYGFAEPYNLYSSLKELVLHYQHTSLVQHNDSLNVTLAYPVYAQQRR

SMILES	IC50 (PI3Kα)	IC50 (MCF10A)
Cc1ccccc1Nc1ncc(C(=O)NCCCCCCCCCC(=O)N[C@H](C(=O)N2C[C@H](O)C[C@H]2C(=O)N[C@@H](C)c2ccc(-c3scnc3C)cc2)C(C)(C)C)cc1NC(=O)c1csc2ccccc12 [Example 1-7]	0.1 to 0.5 µM	10 to 36 µM
Cc1ccccc1Nc1ncc(C(=O)NCCCCCNC(=O)c2ccc3c(c2)CN(C2CCC(=O)NC2=O)C3=O)cc1NC(=O)c1csc2ccccc12 (stereo not drawn) [Example I-1]	0.1 to 0.5 µM	10 to 36 µM
Cc1ccccc1Nc1ncc(C(=O)NCCCCCCCCCNC(=O)c2ccc3c(c2)CN(C2CCC(=O)NC2=O)C3=O)cc1NC(=O)c1csc2ccccc12 (stereo not drawn) [Example I-2]	0.5 to 1 µM	10 to 36 µM
Cc1ccccc1Nc1ncc(C(=O)NCCCCCCCCCC(=O)NCc2ccc3c(c2)CN(C2CCC(=O)NC2=O)C3=O)cc1NC(=O)c1csc2ccccc12 (stereo not drawn) [Example I-3]	0.1 to 0.5 µM	10 to 36 µM
Cc1ccccc1Nc1ncc(C(=O)NCCOCCOCCOCCC(=O)N[C@H](C(=O)N2C[C@H](O)C[C@H]2C(=O)N[C@@H](C)c2ccc(-c3scnc3C)cc2)C(C)(C)C)cc1NC(=O)c1csc2ccccc12 [Example I-4]	1 to 10 µM	10 to 36 µM
Cc1ccccc1Nc1ncc(C(=O)NCCCCCCCNC(=O)c2ccc3c(c2)CN(C2CCC(=O)NC2=O)C3=O)cc1NC(=O)c1csc2ccccc12 (stereo not drawn) [Example I-5]	0.1 to 0.5 µM	10 to 36 µM
Cc1ccccc1Nc1ncc(C(=O)NCCCCCCCC(=O)NCc2ccc3c(c2)CN(C2CCC(=O)NC2=O)C3=O)cc1NC(=O)c1csc2ccccc12 (stereo not drawn) [Example I-6]	0.1 to 0.5 µM	10 to 36 µM
Cc1ccccc1Nc1ncc(C(=O)NCCCCCCCC(=O)N[C@H](C(=O)N2C[C@H](O)C[C@H]2C(=O)N[C@@H](C)c2ccc(-c3scnc3C)cc2)C(C)(C)C)cc1NC(=O)c1csc2ccccc12 [Example I-8]	0.1 to 0.5 µM	10 to 36 µM
Cc1ccccc1Nc1ncc(C(=O)NCCCCCC(=O)NCc2ccc3c(c2)CN(C2CCC(=O)NC2=O)C3=O)cc1NC(=O)c1csc2ccccc12 (stereo not drawn) [Example I-9]	0.1 to 0.5 µM	10 to 36 µM
Cc1ccccc1Nc1ncc(C(=O)NCCCCCCCCCC(=O)N[C@H](C(=O)N2C[C@H](O)C[C@H]2C(=O)NCc2ccc(-c3scnc3C)cc2)C(C)(C)C)cc1NC(=O)c1csc2ccccc12 [Example I-10]	0.1 to 0.5 µM	10 to 36 µM
Cc1ccccc1Nc1ncc(C(=O)NCCOCCOCCOCCOCCOCCC(=O)N[C@H](C(=O)N2C[C@H](O)C[C@H]2C(=O)N[C@@H](C)c2ccc(-c3scnc3C)cc2)C(C)(C)C)cc1NC(=O)c1csc2ccccc12 [Example I-11]	1 to 10 µM	10 to 36 µM
Cc1ccccc1Nc1ncc(C(=O)NCCCCCCCCCNc2ccc3c(c2)C(=O)N(C2CCC(=O)NC2=O)C3=O)cc1NC(=O)c1csc2ccccc12 (stereo not drawn) [Example I-12]	0.1 to 0.5 µM	10 to 36 µM
Cc1ccccc1Nc1ncc(C(=O)NCCOCCOCCOCCOCCC(=O)N[C@H](C(=O)N2C[C@H](O)C[C@H]2C(=O)N[C@@H](C)c2ccc(-c3scnc3C)cc2)C(C)(C)C)cc1NC(=O)c1csc2ccccc12 [Example I-13]	1 to 10 µM	10 to 36 µM
Cc1ccccc1Nc1ncc(C(=O)NCCCCCNc2ccc3c(c2)C(=O)N(C2CCC(=O)NC2=O)C3=O)cc1NC(=O)c1csc2ccccc12 (stereo not drawn) [Example I-17]	< 0.1 µM	5 to 10 µM
Cc1ccccc1Nc1ncc(C(=O)NCCCCCNc2cccc3c2C(=O)N(C2CCC(=O)NC2=O)C3=O)cc1NC(=O)c1csc2ccccc12 (stereo not drawn) [Example I-22]	0.1 to 0.5 µM	10 to 36 µM
Cc1ccccc1Nc1ncc(C(=O)NCCCCCCCCCC(N)=O)cc1NC(=O)c1csc2ccccc12 [Example I-24]	< 0.1 µM	1 to 5 µM
Cc1ccccc1Nc1ncc(C(=O)NCCCCCCCCCC(=O)O)cc1NC(=O)c1csc2ccccc12 [Example I-25]	< 0.1 µM	1 to 5 µM
CCCCCCCCCCCCNC(=O)c1cnc(Nc2ccccc2C)c(NC(=O)c2csc3ccccc23)c1 [Example I-28]	1 to 10 µM	10 to 36 µM
Cc1ccccc1Nc1ncc(C(=O)NCCCCCCCCCNc2cccc3c2C(=O)N(C2CCC(=O)NC2=O)C3=O)cc1NC(=O)c1csc2ccccc12 (stereo not drawn) [Example I-31]	0.1 to 0.5 µM	10 to 36 µM
Cc1ccccc1Nc1ncc(C(=O)NCCCCCCCNc2ccc3c(c2)C(=O)N(C2CCC(=O)NC2=O)C3=O)cc1NC(=O)c1csc2ccccc12 (stereo not drawn) [Example I-39]	0.1 to 0.5 µM	10 to 36 µM
Cc1ccccc1Nc1ncc(C(=O)NCC#Cc2ccc3c(c2)CN(C2CCC(=O)NC2=O)C3=O)cc1NC(=O)c1csc2ccccc12 (stereo not drawn) [Example I-53]	< 0.1 µM	< 1 µM
Cc1ccccc1Nc1ncc(C(=O)NCCCCNc2ccc3c(c2)C(=O)N(C2CCC(=O)NC2=O)C3=O)cc1NC(=O)c1csc2ccccc12 (stereo not drawn) [Example I-54]	< 0.1 µM	10 to 36 µM

SMILES	IC50 (PI3Kα)	IC50 (MCF10A)
O=C1CCC(N2Cc3cc(C(=O)NCCCCCCCCCNC(=O)c4cc(NC(=O)c5cc(F)cc(C(F)(F)F)c5)c5c(c4)C(=O)N[C@H]5c4cc(F)ccc4Cl)ccc3C2=O)C(=O)N1 (stereo partly drawn) [Example I-67]	< 0.1 µM	10 to 36 µM
O=C(O)CCCCCCCCCNC(=O)c1cnc(Nc2cc(F)ccc2Cl)c(NC(=O)c2csc3ccccc23)c1 [Example I-72]	< 0.1 µM	10 to 36 µM
Cc1cc(Br)c2oc(N3CCN(C(=O)CCCCCCCCNC(=O)c4cnc(Nc5ccccc5C)c(NC(=O)c5csc6ccccc56)c4)CC3)cc(=O)c2c1 [Example I-78]	0.1 to 0.5 µM	10 to 36 µM
Cc1cc([C@@H](C)Nc2ccccc2C(=O)O)c2oc(N3CCN(C(=O)CCOCCNc4ccc5c(c4)C(=O)N(C4CCC(=O)NC4=O)C5=O)CC3)cc(=O)c2c1 (stereo partly drawn) [Example I-144]	1 to 10 µM	
Cc1cc([C@@H](C)Nc2ccccc2C(=O)O)c2oc(N3CCN(C(=O)CCOCCNc4cccc5c4C(=O)N(C4CCC(=O)NC4=O)C5=O)CC3)cc(=O)c2c1 (stereo partly drawn) [Example I-145]	1 to 10 µM	
Cc1cc([C@@H](C)Nc2ccccc2C(=O)O)c2oc(N3CCN(C(=O)CCCNc4ccc5c(c4)C(=O)N(C4CCC(=O)NC4=O)C5=O)CC3)cc(=O)c2c1 (stereo partly drawn) [Example I-146]	1 to 10 µM	
Cc1cc([C@H](C)Nc2ccccc2C(=O)O)c2oc(N3CCN(C(=O)CCCNc4ccc5c(c4)C(=O)N(C4CCC(=O)NC4=O)C5=O)CC3)cc(=O)c2c1 (stereo partly drawn) [Example I-147]	1 to 10 µM	
Cc1cc([C@H](C)Nc2ccccc2C(=O)O)c2oc(N3CCN(C(=O)CCOCCNc4cccc5c4C(=O)N(C4CCC(=O)NC4=O)C5=O)CC3)cc(=O)c2c1 (stereo partly drawn) [Example I-148]	1 to 10 µM	
Cc1cc([C@@H](C)Nc2ccccc2C(=O)O)c2oc(N3CCN(C(=O)CCC(=O)NCc4ccc5c(c4)C(=O)N(C4CCC(=O)NC4=O)C5)CC3)cc(=O)c2c1 (stereo partly drawn) [Example I-149]	1 to 10 µM	
O=C1CCC(N2Cc3cc(C(=O)NCCCCCCCCNC(=O)c4cc(NC(=O)c5cccc(C(F)(F)F)c5)c5c(c4)C(=O)N[C@@H]5c4cc(F)ccc4Cl)ccc3C2=O)C(=O)N1 (stereo partly drawn) [Example I-150]	1 to 10 µM	
O=C1CCC(N2C(=O)c3ccc(NCCOCCOCCOCCOCCOCCOCCOCCOCCOCCOCCOCCOCCNC(=O)c4cc(NC(=O)c5cc(F)cc(C(F)(F)F)c5)c5c(c4)C(=O)N[C@@H]5c4cc(F)ccc4Cl)cc3C2=O)C(=O)N1 (stereo partly drawn) [Example I-151]	1 to 10 µM	
O=C1CCC(N2Cc3cc(C(=O)NCCCCCCCCCCNC(=O)c4cc(NC(=O)c5cccc(C(F)(F)F)c5)c5c(c4)C(=O)N[C@H]5c4cc(F)ccc4Cl)ccc3C2=O)C(=O)N1 (stereo partly drawn) [Example I-152]	0.1 to 0.5 µM	
O=C1CCC(N2Cc3cc(C(=O)NCCOCCOCCOCCOCCOCCOCCOCCOCCOCCOCCOCCOCCNC(=O)c4cc(NC(=O)c5cc(F)cc(C(F)(F)F)c5)c5c(c4)C(=O)N[C@@H]5c4cc(F)ccc4Cl)ccc3C2=O)C(=O)N1 (stereo partly drawn) [Example I-153]	1 to 10 µM	
O=C1CCC(N2Cc3cc(C(=O)NCCCCCCCCCCNC(=O)c4cc(NC(=O)c5cccc(C(F)(F)F)c5)c5c(c4)C(=O)N[C@@H]5c4cc(F)ccc4Cl)ccc3C2=O)C(=O)N1 (stereo partly drawn) [Example I-154]	1 to 10 µM	
O=C1CCC(N2Cc3cc(C(=O)NCCCCCCCCCNC(=O)c4cc(NC(=O)c5cccc(C(F)(F)F)c5)c5c(c4)C(=O)N[C@@H]5c4cc(F)ccc4Cl)ccc3C2=O)C(=O)N1 (stereo partly drawn) [Example I-155]	1 to 10 µM	
O=C1CCC(N2C(=O)c3ccc(NCCOCCOCCOCCOCCOCCOCCOCCOCCOCCOCCOCCOCCNC(=O)c4cc(NC(=O)c5cc(F)cc(C(F)(F)F)c5)c5c(c4)C(=O)N[C@H]5c4cc(F)ccc4Cl)cc3C2=O)C(=O)N1 (stereo partly drawn) [Example I-156]	< 0.1 µM	
O=C1CCC(N2Cc3cc(C(=O)NCCOCCOCCOCCOCCOCCOCCOCCOCCOCCOCCOCCOCCNC(=O)c4cc(NC(=O)c5cc(F)cc(C(F)(F)F)c5)c5c(c4)C(=O)N[C@H]5c4cc(F)ccc4Cl)ccc3C2=O)C(=O)N1 (stereo partly drawn) [Example I-157]	0.5 to 1 µM	
O=C1CCC(N2Cc3cc(C(=O)NCCCCCCCCNC(=O)c4cc(NC(=O)c5cccc(C(F)(F)F)c5)c5c(c4)C(=O)N[C@H]5c4cc(F)ccc4Cl)ccc3C2=O)C(=O)N1 (stereo partly drawn) [Example I-158]	< 0.1 µM	
O=C1CCC(N2Cc3cc(C(=O)NCCCCCCCCCNC(=O)c4cc(NC(=O)c5csc6ccccc56)c5c(c4)C(=O)NC5c4cc(F)ccc4Cl)ccc3C2=O)C(=O)N1 (stereo not drawn) [Example I-159]	< 0.1 µM	
O=C1CCC(N2Cc3cc(C(=O)NCCCCCCCCCNC(=O)c4cc(NC(=O)c5cccc(F)c5)c5c(c4)C(=O)N[C@H]5c4cc(F)ccc4Cl)ccc3C2=O)C(=O)N1 (stereo partly drawn) [Example I-160]	0.1 to 0.5 µM	
O=C1CCC(N2Cc3cc(C(=O)NCCCCCCCCCNC(=O)c4cc(NC(=O)c5cccc(F)c5)c5c(c4)C(=O)N[C@@H]5c4cc(F)ccc4Cl)ccc3C2=O)C(=O)N1 (stereo partly drawn) [Example I-161]	1 to 10 µM	
O=C1CCC(N2Cc3cc(C(=O)NCCCCCCCCCNC(=O)c4cc(NC(=O)c5cccc(C(F)(F)F)c5)c5c(c4)C(=O)N[C@H]5c4cc(F)ccc4Cl)ccc3C2=O)C(=O)N1 (stereo partly drawn) [Example I-162]	0.5 to 1 µM	
